Patent publication US6894003B2, “Enhancement of the activity of carotenoid biosynthesis inhibitor herbicides” (BASF Aktiengesellschaft, priority 2000, dated 2005)

Tests used:
Format in all cases: in vivo
Setaria viridis = experiment: Greenhouse pre-emergence weed control, green foxtail; conditions: vs untreated check
Description: (§1) Seeds of the monocotyledonous and dicotyledonous test plants are separately mixed with potting soil and planted on top of approximately one inch of soil in separate pint cups. After planting, the cups are subjected to the following treatments:
(§2) Technical TTP (treatment H) is applied as a dispersion in acetone using a single-nozzle overhead track pneumatic sprayer, while granular or powder formulations (treatments I-K) are applied by shaking the solid granules or powder directly and evenly onto the soil surface.
(§3) The treated cups are then placed on greenhouse benches, watered and cared for in accordance with conventional greenhouse procedures. Twenty days after treatment (DAT), the seedling plants are examined, and the % weed control as compared to untreated check is recorded (Table I).

[1] = system: Triticum aestivum (variety Kanzler); experiment: Crop phytotoxicity, winter wheat (variety Kanzler); conditions: assessed visually
Description: as §1, §2, §3

Veronica persica = experiment: Greenhouse pre-emergence weed control, Veronica; conditions: vs untreated check
Description: as §1, §2, §3

Alopecurus myosuroides = experiment: Greenhouse pre-emergence weed control, blackgrass; conditions: for Weed Control (20 DAT) ALOMY: vs untreated check
Description: as §1, §2, §3

Lolium perenne = experiment: Greenhouse pre-emergence weed control, ryegrass; conditions: vs untreated check
Description: as §1, §2, §3

Galium aparine = experiment: Greenhouse pre-emergence weed control, Galium; conditions: for Weed Control (20 DAT) GALAP: vs untreated check
Description: as §1, §2, §3

[2] = system: Hordeum vulgare (variety Mammut); experiment: Crop phytotoxicity, winter barley (variety Mammut); conditions: assessed visually
Description: as §1, §2
The treated cups are then placed on greenhouse benches, watered and cared for in accordance with conventional greenhouse procedures. […]

Papaver rhoeas = experiment: Greenhouse pre-emergence weed control, poppy; conditions: vs untreated check
Description: as §1, §2, §3

[3] = system: Matricaria inodora vulgare; experiment: Greenhouse pre-emergence weed control, Matricaria; conditions: vs untreated check
Description: as §1, §2, §3

FC(F)(F)c1ccc(-c2nccc(Oc3cccc(C(F)(F)F)c3)n2)cc1 [H, 4-(3-trifluoromethylphenoxy)-2-(4-trifluoromethylphenyl)-pyrimidine]
Weed Control (20 DAT) SETVI (Setaria viridis; 0.060 kg/ha): 96.5% | Weed Control (20 DAT) SETVI (Setaria viridis; 0.120 kg/ha): 100.0% | Weed Control (20 DAT) SETVI (Setaria viridis; 0.240 kg/ha): 100.0% | Weed Control (20 DAT) SETVI (Setaria viridis; 0.480 kg/ha): 100.0% | Crop Phytotoxicity 11 DAT TRZAWK ([1]; 0.060 kg/ha): 1.0 | Crop Phytotoxicity 20 DAT TRZAWK ([1]; 0.060 kg/ha): 0.5 | Crop Phytotoxicity 11 DAT TRZAWK ([1]; 0.120 kg/ha): 2.5 | Crop Phytotoxicity 20 DAT TRZAWK ([1]; 0.120 kg/ha): 1.0 | Crop Phytotoxicity 11 DAT TRZAWK ([1]; 0.240 kg/ha): 6.5 | Crop Phytotoxicity 20 DAT TRZAWK ([1]; 0.240 kg/ha): 4.5 | Crop Phytotoxicity 11 DAT TRZAWK ([1]; 0.480 kg/ha): 14.0 | Crop Phytotoxicity 20 DAT TRZAWK ([1]; 0.480 kg/ha): 10.0 | Weed Control (20 DAT) VERPE (Veronica persica; 0.060 kg/ha): 99.5% | Weed Control (20 DAT) VERPE (Veronica persica; 0.120 kg/ha): 100.0% | Weed Control (20 DAT) VERPE (Veronica persica; 0.240 kg/ha): 100.0% | Weed Control (20 DAT) VERPE (Veronica persica; 0.480 kg/ha): 100.0% | Weed Control (20 DAT) ALOMY (Alopecurus myosuroides; 0.060 kg/ha): 22.5% | Weed Control (20 DAT) ALOMY (Alopecurus myosuroides; 0.120 kg/ha): 77.5% | Weed Control (20 DAT) ALOMY (Alopecurus myosuroides; 0.240 kg/ha): 98.5% | Weed Control (20 DAT) ALOMY (Alopecurus myosuroides; 0.480 kg/ha): 99.0% | Rate required to control Alopecurus (Alopecurus myosuroides; greenhouse): 240 g/ha | Weed Control (20 DAT) LOLPE (Lolium perenne; 0.060 kg/ha): 91.5% | Weed Control (20 DAT) LOLPE (Lolium perenne; 0.120 kg/ha): 98.5% | Weed Control (20 DAT) LOLPE (Lolium perenne; 0.240 kg/ha): 99.0% | Weed Control (20 DAT) LOLPE (Lolium perenne; 0.480 kg/ha): 99.0% | Weed Control (20 DAT) GALAP (Galium aparine; 0.060 kg/ha): 67.5% | Weed Control (20 DAT) GALAP (Galium aparine; 0.120 kg/ha): 72.5% | Weed Control (20 DAT) GALAP (Galium aparine; 0.240 kg/ha): 98.0% | Weed Control (20 DAT) GALAP (Galium aparine; 0.480 kg/ha): 98.0% | Rate required to control Galium (Galium aparine; greenhouse): 240 g/ha | Crop Phytotoxicity 11 DAT HORVWM ([2]; 0.060 kg/ha): 20.0 | Crop Phytotoxicity 20 DAT HORVWM ([2]; 0.060 kg/ha): 15.0 | Crop Phytotoxicity 11 DAT HORVWM ([2]; 0.120 kg/ha): 40.0 | Crop Phytotoxicity 20 DAT HORVWM ([2]; 0.120 kg/ha): 25.0 | Crop Phytotoxicity 11 DAT HORVWM ([2]; 0.240 kg/ha): 42.5 | Crop Phytotoxicity 20 DAT HORVWM ([2]; 0.240 kg/ha): 40.0 | Crop Phytotoxicity 11 DAT HORVWM ([2]; 0.480 kg/ha): 47.5 | Crop Phytotoxicity 20 DAT HORVWM ([2]; 0.480 kg/ha): 45.0 | Weed Control (20 DAT) PAPRH (Papaver rhoeas; 0.060 kg/ha): 99.5% | Weed Control (20 DAT) PAPRH (Papaver rhoeas; 0.120 kg/ha): 99.5% | Weed Control (20 DAT) PAPRH (Papaver rhoeas; 0.240 kg/ha): 100.0% | Weed Control (20 DAT) PAPRH (Papaver rhoeas; 0.480 kg/ha): 100.0% | Weed Control (20 DAT) MATIN ([3]; 0.060 kg/ha): 98.5% | Weed Control (20 DAT) MATIN ([3]; 0.120 kg/ha): 99.0% | Weed Control (20 DAT) MATIN ([3]; 0.240 kg/ha): 99.0% | Weed Control (20 DAT) MATIN ([3]; 0.480 kg/ha): 100.0%
